Measured values taken from patent US6914045B2, “Glycopeptide antibiotics” (Wyeth Holdings Corporation, priority 2001, dated 2005).
In brackets after ≈: the same amount, converted by molar mass.

Assays:
Experiment in all cases: in vitro antibacterial evaluation, MIC by broth dilution
Assay type in all cases: cell-based
Escherichia coli = tested on: Escherichia coli
Outline: (§1)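 Test organisms, which included recent clinical isolates resistant to methicillin, penicillin and/or vancomycin, were inoculated at 5×10^5 CFU/mL into Muller-Hinton II […] containing antibiotic at 64-0.06 μg/mL. Minimum inhibitory concentrations were then read as the lowest level inhibiting growth.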

Staphylococcus sp. = conditions: broth dilution, 18 hours at 35° C.; for MIC Staphylococcus aureus (GC 1131): strain GC 1131
Outline: as §1

Streptococcus sp. = conditions: broth dilution, 18 hours at 35° C.; for MIC Streptococcus pneumoniae (ATCC 6301): strain ATCC 6301; for MIC Streptococcus pneumoniae (GC 1894): strain GC 1894; for MIC Streptococcus pyogenes (GC 4563): strain GC 4563; for MIC Streptococcus agalactiae (GC 4564): strain GC 4564; for MIC Streptococcus pneumoniae (GC 4565): strain GC 4565
Outline: as §1

Enterococcus sp. = conditions: broth dilution, 18 hours at 35° C.; for MIC Enterococcus faecalis (ATCC 29212): strain ATCC 29212; for MIC Enterococcus faecalis (GC 2242): strain GC 2242; for MIC Enterococcus faecium (GC 2243): strain GC 2243; for MIC Enterococcus faecalis (GC 2691): strain GC 2691; for MIC Enterococcus faecalis (GC 3059): strain GC 3059; for MIC Enterococcus faecalis (GC 4552): strain GC 4552; for MIC Enterococcus faecalis (GC 4553): strain GC 4553; for MIC Enterococcus faecalis (GC 4554): strain GC 4554; for MIC Enterococcus faecium (GC 4556): strain GC 4556; for MIC Enterococcus faecium (GC 4557): strain GC 4557; for MIC Enterococcus avium (GC 4558): strain GC 4558; for MIC Enterococcus faecalis (GC 6189): strain GC 6189
Outline: as §1

- MIC Escherichia coli (ATCC 25922) (Escherichia coli; strain ATCC 25922, 18 hours at 35° C.): >64 µg/mL
- MIC Escherichia coli (GC 4559) (Escherichia coli; strain GC 4559, 18 hours at 35° C.): 64 µg/mL (≈ 43.7 µM)
- MIC Escherichia coli (GC 4560) (Escherichia coli; strain GC 4560, 18 hours at 35° C.): 4 µg/mL (≈ 2.73 µM)
- MIC Staphylococcus aureus (GC 1131) (Staphylococcus sp.; inoculum 5×10^5 CFU/mL): 4 µg/mL (≈ 2.73 µM)
- MIC Staphylococcus aureus (ATCC 29213) (Staphylococcus sp.; strain ATCC 29213): 8 µg/mL (≈ 5.46 µM)
- MIC Staphylococcus aureus (GC 1131) (Staphylococcus sp.): 4 µg/mL (≈ 2.73 µM)
- MIC Staphylococcus aureus (GC 3051) (Staphylococcus sp.; strain GC 3051): 16 µg/mL (≈ 10.9 µM)
- MIC Staphylococcus aureus (GC 3053) (Staphylococcus sp.; strain GC 3053): 8 µg/mL (≈ 5.46 µM)
- MIC Staphylococcus aureus (GC 4541) (Staphylococcus sp.; strain GC 4541): 8 µg/mL (≈ 5.46 µM)
- MIC Staphylococcus aureus (GC 4542) (Staphylococcus sp.; strain GC 4542): 16 µg/mL (≈ 10.9 µM)
- MIC Staphylococcus aureus-SMITH (GC 4543) (Staphylococcus sp.; strain GC 4543): 4 µg/mL (≈ 2.73 µM)
- MIC Staphylococcus aureus (GC 4544) (Staphylococcus sp.; strain GC 4544): 8 µg/mL (≈ 5.46 µM)
- MIC Staphylococcus aureus (GC 4545) (Staphylococcus sp.; strain GC 4545): 4 µg/mL (≈ 2.73 µM)
- MIC Coagulase Negative Staphylococcus (GC 4547) (Staphylococcus sp.; strain GC 4547): 4 µg/mL (≈ 2.73 µM)
- MIC Coagulase Negative Staphylococcus (GC 4548) (Staphylococcus sp.; strain GC 4548): 1 µg/mL (≈ 0.682 µM)
- MIC Coagulase Negative Staphylococcus (GC 4549) (Staphylococcus sp.; strain GC 4549): 0.5 µg/mL (≈ 0.341 µM)
- MIC Coagulase Negative Staphylococcus (GC 4551) (Staphylococcus sp.; strain GC 4551): 4 µg/mL (≈ 2.73 µM)
- MIC Coagulase Negative Staphylococcus (GC 6257) (Staphylococcus sp.; strain GC 6257): 1 µg/mL (≈ 0.682 µM)
- MIC Staphylococcus aureus-SMITH (GC 4543) (Staphylococcus sp.; strain SMITH GC 4543): 4 µg/mL (≈ 2.73 µM)
- MIC Streptococcus pneumoniae (ATCC 6301) (Streptococcus sp.; inoculum 5×10^5 CFU/mL): <0.06 µg/mL
- MIC Streptococcus pneumoniae (GC 1894) (Streptococcus sp.; inoculum 5×10^5 CFU/mL): <0.06 µg/mL
- MIC Streptococcus pyogenes (GC 4563) (Streptococcus sp.; inoculum 5×10^5 CFU/mL): 0.12 µg/mL (≈ 0.0819 µM)
- MIC Streptococcus agalactiae (GC 4564) (Streptococcus sp.; inoculum 5×10^5 CFU/mL): 0.12 µg/mL (≈ 0.0819 µM)
- MIC Streptococcus pneumoniae (GC 4565) (Streptococcus sp.; inoculum 5×10^5 CFU/mL): <0.06 µg/mL
- MIC Streptococcus pneumoniae (ATCC 6301) (Streptococcus sp.): <0.06 µg/mL
- MIC Streptococcus pneumoniae (GC 1894) (Streptococcus sp.): <0.06 µg/mL
- MIC Streptococcus pyogenes (GC 4563) (Streptococcus sp.): 0.12 µg/mL (≈ 0.0819 µM)
- MIC Streptococcus agalactiae (GC 4564) (Streptococcus sp.): 0.12 µg/mL (≈ 0.0819 µM)
- MIC Streptococcus pneumoniae (GC 4565) (Streptococcus sp.): <0.06 µg/mL
- MIC Enterococcus faecalis (ATCC 29212) (Enterococcus sp.; inoculum 5×10^5 CFU/mL): 8 µg/mL (≈ 5.46 µM)
- MIC Enterococcus faecalis (GC 2242) (Enterococcus sp.; inoculum 5×10^5 CFU/mL): 4 µg/mL (≈ 2.73 µM)
- MIC Enterococcus faecium (GC 2243) (Enterococcus sp.; inoculum 5×10^5 CFU/mL): 8 µg/mL (≈ 5.46 µM)
- MIC Enterococcus faecalis (GC 2691) (Enterococcus sp.; inoculum 5×10^5 CFU/mL): 8 µg/mL (≈ 5.46 µM)
- MIC Enterococcus faecalis (GC 3059) (Enterococcus sp.; inoculum 5×10^5 CFU/mL): 8 µg/mL (≈ 5.46 µM)
- MIC Enterococcus faecalis (GC 4552) (Enterococcus sp.; inoculum 5×10^5 CFU/mL): 8 µg/mL (≈ 5.46 µM)
- MIC Enterococcus faecalis (GC 4553) (Enterococcus sp.; inoculum 5×10^5 CFU/mL): 8 µg/mL (≈ 5.46 µM)
- MIC Enterococcus faecalis (GC 4554) (Enterococcus sp.; inoculum 5×10^5 CFU/mL): 16 µg/mL (≈ 10.9 µM)
- MIC Enterococcus faecium (GC 4556) (Enterococcus sp.; inoculum 5×10^5 CFU/mL): 8 µg/mL (≈ 5.46 µM)
- MIC Enterococcus faecium (GC 4557) (Enterococcus sp.; inoculum 5×10^5 CFU/mL): 4 µg/mL (≈ 2.73 µM)
- MIC Enterococcus avium (GC 4558) (Enterococcus sp.; inoculum 5×10^5 CFU/mL): 8 µg/mL (≈ 5.46 µM)
- MIC Enterococcus faecalis (GC 6189) (Enterococcus sp.; inoculum 5×10^5 CFU/mL): 4 µg/mL (≈ 2.73 µM)
- MIC Enterococcus faecalis (ATCC 29212) (Enterococcus sp.): 8 µg/mL (≈ 5.46 µM)
- MIC Enterococcus faecalis (GC 2242) (Enterococcus sp.): 4 µg/mL (≈ 2.73 µM)
- MIC Enterococcus faecium (GC 2243) (Enterococcus sp.): 8 µg/mL (≈ 5.46 µM)
- MIC Enterococcus faecalis (GC 2691) (Enterococcus sp.): 8 µg/mL (≈ 5.46 µM)
- MIC Enterococcus faecalis (GC 3059) (Enterococcus sp.): 8 µg/mL (≈ 5.46 µM)
- MIC Enterococcus faecalis (GC 4552) (Enterococcus sp.): 8 µg/mL (≈ 5.46 µM)
- MIC Enterococcus faecalis (GC 4553) (Enterococcus sp.): 8 µg/mL (≈ 5.46 µM)
- MIC Enterococcus faecalis (GC 4554) (Enterococcus sp.): 16 µg/mL (≈ 10.9 µM)
- MIC Enterococcus faecium (GC 4556) (Enterococcus sp.): 8 µg/mL (≈ 5.46 µM)
- MIC Enterococcus faecium (GC 4557) (Enterococcus sp.): 4 µg/mL (≈ 2.73 µM)
- MIC Enterococcus avium (GC 4558) (Enterococcus sp.): 8 µg/mL (≈ 5.46 µM)
- MIC Enterococcus faecalis (GC 6189) (Enterococcus sp.): 4 µg/mL (≈ 2.73 µM)
SMILES: CC(c1ccccc1)C1NC(=O)CNC(=O)C(CO)NC(=O)C(C(O)C2CNC(=N)N2C2OC(CO)C(O)C(O)C2O)NC(=O)C(C(O)C2CNC(=N)N2)NC(=O)C(Cc2ccc(OC3OC(CO)C(OC4OC5COC(c6ccc(-c7ccsc7)cc6)OC5C(O)C4O)C(O)C3O)cc2)NC1=O (stereo not drawn) [Example 164]
- MIC Staphylococcus haemolyticus (GC 4546) (Staphylococcus sp.; strain GC 4546): 4 µg/mL (≈ 2.73 µM)
